The record followed here is PubChem BioAssay AID1996.

Molecules are shown by their SMILES. Values after ≈ are worked out from the molar mass of the structure shown.

For this data set the following is noted: buffer; pH 7.4; 200.0 µM.
`COC(=O)c1c(NC(=O)C2CC(C)=C(C)CC2C(=O)O)sc2c1CCCCC2` (stereo unspecified) yielded a kinetic solubility of 58.1 µg/mL (≈ 143 µM).

Consider `Cc1ccc(NC(=O)c2ccsc2)cc1NS(C)(=O)=O`, for which the kinetic solubility is more than 46.6 µg/mL. The same measure for `Cc1ccc(NC(=O)CN(C)C(=O)COC(=O)c2ccc(NC(=O)CC#N)cc2)cc1`: 36 µg/mL (≈ 85.2 µM); for `Cc1cccc(CS(=O)(=O)c2ncc(CO)n2C)c1`: more than 42.1 µg/mL. Consider `CC1(C)CN(C(=S)Nc2ccc(F)cc2F)C1=O`, for which the solubility (kinetic) amounted to 5.1 µg/mL (≈ 18.9 µM). `COc1ccccc1CNC(=O)CCCc1cn(C)c2ccccc12`: the kinetic solubility was 8.2 µg/mL (≈ 24.4 µM). Compared with the last compound, the solubility kinetic is about 1.6-fold higher.

In the case of `CC(CCc1ccccc1)NC(C)C(O)c1ccc(O)cc1.Cl` (stereo unspecified), the solubility (kinetic) is more than 50.4 µg/mL. Take `NS(=O)(=O)c1ccc(NC(=O)Cc2cccs2)cc1`: the solubility (kinetic) is more than 44.5 µg/mL. In turn, `O=C(Nc1ccncc1)Nc1ccc(F)cc1` had a kinetic solubility of 29.9 µg/mL (≈ 129 µM). The same measure for `COc1ccc(/C=C/C(=O)OCC(=O)Nc2cccc(S(=O)(=O)NC3=NCCCCC3)c2)cc1`: 12.4 µg/mL (≈ 25.5 µM); for `CC(C)n1cc(/C(N)=N/O)c(=O)n(Cc2ccccc2)c1=O`: more than 45.3 µg/mL. In turn, `CC(=O)c1c(C)[nH]c(C(=O)Nc2ccc(C)cc2Br)c1C` came in with a kinetic solubility of 0.8 µg/mL (≈ 2.29 µM). `CCOc1ccc2[nH]cc(C(=O)NCc3ccccc3)c(=O)c2c1` displayed a kinetic solubility of 0.9 µg/mL (≈ 2.79 µM).

The compound `O=C(Nc1ccnc(-c2ccncc2)n1)c1ccc(F)cc1` showed a kinetic solubility of 0.4 µg/mL (≈ 1.36 µM).

For the compound `COc1ccc2c([N+](=O)[O-])c(N3CCCC3)[nH]c2c1`, the solubility (kinetic) is 37.7 µg/mL (≈ 144 µM). For the compound `Cc1cnc(C(=O)OCC(=O)Nc2cc(Cl)ccc2C#N)cn1`, the solubility (kinetic) was more than 49.6 µg/mL. Compound `NS(=O)(=O)c1ccc(CCNC(=O)C2CCN(C(=O)Nc3ccccc3)CC2)cc1` returned a kinetic solubility of 63.9 µg/mL (≈ 148 µM). With `Cc1nc(SCC(=O)N(C)C2CCS(=O)(=O)C2)c2ccccc2n1` (stereo unspecified), the solubility (kinetic) is more than 54.8 µg/mL. For `CS(=O)(=O)c1ccc(C(=O)Nc2ccccc2Cl)cc1`, the solubility (kinetic) was more than 46.5 µg/mL. Regarding `N#Cc1c(-c2cccnc2)cc(-c2ccccc2)nc1N`, the kinetic solubility amounted to 2.4 µg/mL (≈ 8.81 µM). Take `CCOc1ncccc1C(=O)OCC(=O)NCc1ccc(C(=O)OC)cc1`: the kinetic solubility is more than 55.9 µg/mL.

As to `O=[N+]([O-])c1ccc(Cl)c(NC(=S)N2CCCC2)c1`, the solubility (kinetic) is 9.7 µg/mL (≈ 33.9 µM).

The compound `COc1ccc(NC(=O)Cn2c(=O)oc3ccccc32)cc1` yielded a solubility (kinetic) of 35 µg/mL (≈ 117 µM).

`Cc1cccc(N(CC(=O)N2CCCC2)S(C)(=O)=O)c1`: the solubility (kinetic) is 43.5 µg/mL (≈ 147 µM). `Cc1nn(C)c(Cl)c1/C=N/OC(=O)c1ccccc1` gave a solubility (kinetic) of more than 41.7 µg/mL. In the case of `Cc1cc(NC(=O)c2ccc(COc3ccccc3Cl)o2)no1`, the solubility (kinetic) was less than 0.4 µg/mL. For `Cc1cc(NC(=O)c2cccc(Br)c2)no1`, the solubility (kinetic) is 4.2 µg/mL (≈ 14.9 µM).

The compound `CC(=O)N1CCC(c2c[nH]c3ccccc23)CC1` registered a kinetic solubility of more than 36.3 µg/mL. As to `O=Cc1cccc(OC(=O)Nc2ccccc2)c1`, the solubility (kinetic) came to 29.2 µg/mL (≈ 121 µM). For the compound `CCOc1ccccc1C(=O)NCC(=O)NCCCSc1ccccc1`, the kinetic solubility came out at 2.5 µg/mL (≈ 6.71 µM). Against the preceding compound, the solubility kinetic is about 12-fold lower. As for `Cc1cc(C(=O)OCC(=O)N2C(C)CCCC2C)c2ccccc2n1` (stereo unspecified), the solubility (kinetic) was more than 51.1 µg/mL.

`COc1ccccc1C/C(N)=N/OC(=O)COc1cccc(C)c1C`: the kinetic solubility stood at 8.2 µg/mL (≈ 23.9 µM).

Consider `CC(=O)Nc1ccc(S(=O)(=O)N(CC(=O)NC2CC2)Cc2ccccc2)cc1`, for which the kinetic solubility was more than 60.2 µg/mL. As for `COc1ccc(-n2c(C)cc(=O)[nH]c2=O)cc1`, the solubility (kinetic) was more than 34.8 µg/mL. Regarding `O=C1CCC(=O)N1c1ccc(S(=O)(=O)N2CCCC2)cc1`, the solubility (kinetic) is 45.4 µg/mL (≈ 147 µM). `O=C(c1ccccn1)N1CCN(S(=O)(=O)c2ccccc2)CC1` yielded a kinetic solubility of more than 49.7 µg/mL. The compound `COc1c(Cl)ccc(Cl)c1C(=O)NCc1ccco1` had a solubility (kinetic) of more than 45 µg/mL. `COc1ccc(N2CCN(c3ccc(Cl)nn3)CC2)cc1` yielded a kinetic solubility of more than 45.7 µg/mL. For `CCSc1ccccc1C(=O)Nc1ccc([N+](=O)[O-])cc1OC`, the solubility (kinetic) worked out at 1.4 µg/mL (≈ 4.21 µM). With `O=c1[nH]c(=O)n(CCc2ccccc2)c(O)c1C=NC1CC1` the figure was 10.3 µg/mL (≈ 34.4 µM); with `CC(=O)Nc1ccc(NC(=O)COC(=O)C2CCCCC2)cc1`, more than 47.8 µg/mL; with `CN(C)c1ccc2nsnc2c1[N+](=O)[O-]`, 33.4 µg/mL (≈ 149 µM). The compound `COC(=O)c1nc(N)sc1C(C)C` gave a kinetic solubility of more than 30 µg/mL. The compound `CC(O)Cn1c(N2CCCC2)nc2c1c(=O)[nH]c(=O)n2C` (stereo unspecified) yielded a kinetic solubility of 41.4 µg/mL (≈ 141 µM).

`CCN(CC)S(=O)(=O)c1ccc2oc(SCC(=O)NC3CC3)nc2c1` yielded a kinetic solubility of more than 57.5 µg/mL.

As for `Cc1csc2c(N3CCN(C(=O)NC(C)(C)C)CC3)ncnc12`, the solubility (kinetic) was more than 50 µg/mL.

`Cc1cc(C)c2c(CC(=O)NC(C)C)coc2c1` registered a kinetic solubility of 9.5 µg/mL (≈ 38.7 µM). On to `O=C(NCc1csc(-c2cccs2)n1)c1ccsc1`, for which the kinetic solubility was found to be 45.9 µg/mL (≈ 150 µM).

Take `Cc1ccc(O)c(NC(=O)c2cc(-c3ccco3)on2)c1`: the kinetic solubility turned out to be 1.2 µg/mL (≈ 4.22 µM). The compound `O=C(COc1cc(F)ccc1[N+](=O)[O-])NCCN1C(=O)CSC1=O` gave a solubility (kinetic) of more than 53.6 µg/mL.

`Cc1cc(NC(=O)CSCC(=O)NC(C)c2ccccc2)no1` (stereo unspecified): the kinetic solubility is more than 50 µg/mL.

By solubility (kinetic) is commonly meant the concentration staying in solution when a stock, usually in DMSO, is diluted into the medium.
